Assay results as given in patent US11096985B2, “Antimicrobial peptides, their variants and uses” (priority 2015, dated 2021).
Where a SMILES comes first, the peptide text is derived from it. [ ]: non-standard residue; d: D form.

Key:
[1] = test system: clinical strains of C. glabrata; test: MIC, clinical yeast strains, C. glabrata; format: cell-based, Candida glabrata; parameters: unit: μg/ml
Outline: (§1)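 By broth microdilution, Chain peptides from 0.125 to 128 μg/ml were tested against clinical strains adjusted to 5.0×10^5 cfu/ml, with bacteria in MH broth and yeasts in Potato dextrose broth. After 20–24 h at 37 °C, the lowest peptide concentration without visible growth was scored as MIC.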

[2] = test system: clinical strains of Enterobacter cloacae; test: MIC, clinical strains of Enterobacter cloacae; format: cell-based; parameters: unit: μg/ml; conditions: microdilution, Muller Hinton broth-cation adjusted, 0.02% BSA, 0.2% acetic acid
Outline: as §1

[3] = test system: clinical strains of Klebsiella pneumoniae; test: MIC, clinical strains of K. pneumoniae; format: cell-based; parameters: unit: μg/ml; conditions: microdilution, Muller Hinton broth-cation adjusted, 0.02% BSA, 0.2% acetic acid
Outline: as §1

[4] = test system: clinical strains of Candida albicans; test: MIC, clinical yeast strains, Candida albicans; format: cell-based; parameters: unit: μg/ml
Outline: as §1

[5] = test system: clinical strains of Proteus mirabilis; test: MIC, clinical strains of Proteus mirabilis; format: cell-based; parameters: unit: µg/mL; conditions: microdilution, Muller Hinton broth-cation adjusted, 0.02% BSA, 0.2% acetic acid
Outline: as §1

[6] = test system: clinical strains of C. parapsilosis; test: MIC, clinical yeast strains, C. parapsilosis; format: cell-based, Candida parapsilosis; parameters: unit: μg/ml
Outline: as §1

[7] = test system: clinical strains of C. quillermondiae; test: MIC, clinical yeast strains, C. quillermondiae; format: cell-based; conditions: C. quillermondiae clinical yeast strain 1
Outline: as §1

[8] = test system: clinical strains of Staphylococcus aureus; test: MIC, clinical strains of S. aureus; format: cell-based; parameters: unit: μg/ml; conditions: microdilution, Muller Hinton broth-cation adjusted, 0.02% BSA, 0.2% acetic acid
Outline: as §1

[9] = test system: clinical strains of Streptococcus pneumoniae; test: MIC, clinical strains of Streptococcus pneumoniae; format: cell-based; parameters: unit: µg/mL; conditions: microdilution, Muller Hinton broth-cation adjusted, 0.02% BSA, 0.2% acetic acid
Outline: as §1

[10] = test system: clinical strains of Escherichia coli; test: MIC, clinical strains of E. coli; format: cell-based; parameters: unit: μg/ml; conditions: microdilution, Muller Hinton broth-cation adjusted, 0.02% BSA, 0.2% acetic acid
Outline: as §1

[11] = test system: clinical strains of Pseudomonas aeruginosa; test: MIC, clinical strains of P. aeruginosa; format: cell-based; parameters: unit: μg/ml; conditions: microdilution, Muller Hinton broth-cation adjusted, 0.02% BSA, 0.2% acetic acid
Outline: as §1

[12] = test system: clinical strains of Acinetobacter baumannii; test: MIC, clinical strains of Acinetobacter baumannii; format: cell-based; conditions: microdilution, Muller Hinton broth-cation adjusted, 0.02% BSA, 0.2% acetic acid
Experimental: Minimum inhibition concentrations (MICs) were determined against Escherichia coli (ATCC 25922), Staphylococcus aureus (ATCC 25923), Klebsiella pneumoniae (ATCC 10031) and Pseudomonas aeruginosa (ATCC 27853). Also clinical strains of E. coli, K. pneumoniae, E. cloacae, P. aeruginosa, Serratia marcescens, Proteus mirabilis, S. pneumoniae, Acinetobacter baumannii, A. johnsonii and S. aureus were used for MICs assays. Additionally, clinical strains of yeast including Candida albicans, C. glabrata, C. parapsilosis and C. quillermondiae were used. The susceptibility of these microorganisms to Chain peptides were determined using micro broth dilution assay. Colonies of the respective microorganism from Muller Hinton (MH) agar plates incubated overnight were suspended in MH broth media and final concentration of microorganism was adjusted to 5.0×10^5 cfu/ml. An aliquot of 10 μl of each Chain peptide, or gentamicin, tetracycline as reference antibiotics were added in differing concentrations along with 90 μl of bacterial suspension to 96 well polypropylene plates and incubated at 37° C. for 20 to 24 hours. Concentrations of Chain peptides and reference antibiotics ranged from 0.125 to 128 μg/ml and the MICs were recorded as the lowest concentration with no visual growth of bacteria. Similarly, antifungal MICs were tested in Potato dextrose broth.
Clinical strains of yeasts including Candida albicans, C. glabrata, C. parapsilosis and C. quillermondiae were also tested with the 12 Chain peptides. The minimum inhibitory concentration (MICs) varied between these peptides and are presented in Tables 4a, 4b, 4c and 5a, 5b, 5c. Peptides Chain 105, 201 and 308 are broad spectrum antimicrobials with MICs between 0.5-32 μg/ml against all the bacteria and yeasts tested, except Serratia marcescens and Proteus mirabilis, against which the MICs were between 64-128 μg/ml. Peptide Chain 306 has narrow spectrum activity against E.coli at 1 μg/ml and for the rest of the bacterial strains at >32 μg/ml (FIG. 10).

[13] = test system: clinical strains of Serratia marcescens; test: MIC, clinical strains of Serratia marcescens; format: cell-based; parameters: unit: µg/mL; conditions: microdilution, Muller Hinton broth-cation adjusted, 0.02% BSA, 0.2% acetic acid
Outline: as §1

`CC[C@@H](C)[C@@H](NC(=O)[C@@H](Cc1c[nH]c2ccccc12)NC(=O)[C@H](N)CCCCN)C(=O)N[C@@H](C(=O)N[C@H](Cc1c[nH]c2ccccc12)C(=O)N[C@H](CCCNC(=N)N)C(=O)N[C@H](Cc1c[nH]c2ccccc12)C(=O)N[C@H](CCCNC(=N)N)C(=O)N[C@H](Cc1ccccc1)C(=O)N[C@H](CCCCN)C(=O)N[C@H](CCCNC(=N)N)C(=O)O)C(C)C` [Chain201D] (H-[dK][dW][dI][dV][dW][dR][dW][dR][dF][dK][dR]-OH) gave a Minimum inhibitory concentration ([1]; C. glabrata clinical yeast strain 1) of 8, a Minimum inhibitory concentration ([1]; C. glabrata clinical yeast strain 2) of 8 and a Minimum inhibitory concentration ([1]; C. glabrata clinical yeast strain 3) of 8. The Minimum inhibitory concentration ([1]; C. glabrata clinical yeast strain 4) was 64, the Minimum inhibitory concentration ([2]; Enterobacter cloacae clinical strain 1) was 1 and the Minimum inhibitory concentration ([2]; Enterobacter cloacae clinical strain 2) was 2. The Minimum inhibitory concentration ([2]; Enterobacter cloacae clinical strain 3) was 2, the Minimum inhibitory concentration ([2]; Enterobacter cloacae clinical strain 4) was 2 and the Minimum inhibitory concentration ([2]; Enterobacter cloacae clinical strain 5) was 1. The Minimum inhibitory concentration ([3]; Klebsiella pneumoniae clinical strain 1) was 2, the Minimum inhibitory concentration ([3]; Klebsiella pneumoniae clinical strain 2) was 2 and the Minimum inhibitory concentration ([3]; Klebsiella pneumoniae clinical strain 3) was 4. The Minimum inhibitory concentration ([3]; Klebsiella pneumoniae clinical strain 4) was 4, the Minimum inhibitory concentration ([3]; Klebsiella pneumoniae clinical strain 5) was 2 and the Minimum inhibitory concentration ([4]; Candida albicans clinical yeast strain 1) was 16. For the same compound, the Minimum inhibitory concentration ([4]; Candida albicans clinical yeast strain 2) was 8, the Minimum inhibitory concentration ([4]; Candida albicans clinical yeast strain 3) was 8 and the Minimum inhibitory concentration ([4]; Candida albicans clinical yeast strain 4) was 16. It also gave a Minimum inhibitory concentration ([4]; Candida albicans clinical yeast strain 5) of 8, a Minimum inhibitory concentration ([5]; Proteus mirabilis clinical strain 1) greater than 128 and a Minimum inhibitory concentration ([5]; Proteus mirabilis clinical strain 2) of 32. It also gave a Minimum inhibitory concentration ([5]; Proteus mirabilis clinical strain 3) of 64, a Minimum inhibitory concentration ([5]; Proteus mirabilis clinical strain 4) greater than 128 and a Minimum inhibitory concentration ([5]; Proteus mirabilis clinical strain 5) greater than 128. The Minimum inhibitory concentration ([6]; C. parapsilosis clinical yeast strain 1) was 8, the Minimum inhibitory concentration ([6]; C. parapsilosis clinical yeast strain 2) was 8 and the Minimum inhibitory concentration ([6]; C. parapsilosis clinical yeast strain 3) was 8. It also gave a Minimum inhibitory concentration ([6]; C. parapsilosis clinical yeast strain 4) of 8, a Minimum inhibitory concentration [7] of 8 and a Minimum inhibitory concentration ([8]; Staphylococcus aureus clinical strain 1) of 1. The Minimum inhibitory concentration ([8]; Staphylococcus aureus clinical strain 2) was 1, the Minimum inhibitory concentration ([8]; Staphylococcus aureus clinical strain 3) was 1 and the Minimum inhibitory concentration ([8]; Staphylococcus aureus clinical strain 4) was 1. For the same compound, the Minimum inhibitory concentration ([8]; Staphylococcus aureus clinical strain 5) was 1, the Minimum inhibitory concentration ([9]; Streptococcus pneumoniae clinical strain 1) was 8 and the Minimum inhibitory concentration ([9]; Streptococcus pneumoniae clinical strain 2) was 4. For the same compound, the Minimum inhibitory concentration ([9]; Streptococcus pneumoniae clinical strain 3) was 2, the Minimum inhibitory concentration ([9]; Streptococcus pneumoniae clinical strain 4) was 4 and the Minimum inhibitory concentration ([9]; Streptococcus pneumoniae clinical strain 5) was 4. For the same compound, the Minimum inhibitory concentration ([10]; Escherichia coli clinical strain 1) was 16, the Minimum inhibitory concentration ([10]; Escherichia coli clinical strain 2) was 1 and the Minimum inhibitory concentration ([10]; Escherichia coli clinical strain 3) was 1. It also gave a Minimum inhibitory concentration ([10]; Escherichia coli clinical strain 4) of 1, a Minimum inhibitory concentration ([10]; Escherichia coli clinical strain 5) of 1 and a Minimum inhibitory concentration ([11]; Pseudomonas aeruginosa clinical strain 1) of 4. The Minimum inhibitory concentration ([11]; Pseudomonas aeruginosa clinical strain 2) was 4, the Minimum inhibitory concentration ([11]; Pseudomonas aeruginosa clinical strain 3) was 4 and the Minimum inhibitory concentration ([11]; Pseudomonas aeruginosa clinical strain 4) was 2. For the same compound, the Minimum inhibitory concentration ([11]; Pseudomonas aeruginosa clinical strain 5) was 2, the Minimum inhibitory concentration ([12]; Acinetobacter baumannii clinical strain 1) was 4 and the Minimum inhibitory concentration ([12]; Acinetobacter baumannii clinical strain 2) was 4. For the same compound, the Minimum inhibitory concentration ([12]; Acinetobacter baumannii clinical strain 3) was 4, the Minimum inhibitory concentration ([12]; Acinetobacter baumannii clinical strain 4) was 4 and the Minimum inhibitory concentration ([12]; Acinetobacter baumannii clinical strain 5) was 4. The Minimum inhibitory concentration ([13]; Serratia marcescens clinical strain 1) was 64, the Minimum inhibitory concentration ([13]; Serratia marcescens clinical strain 2) was 64 and the Minimum inhibitory concentration ([13]; Serratia marcescens clinical strain 3) was 64. It also gave a Minimum inhibitory concentration ([13]; Serratia marcescens clinical strain 4) of 64 and a Minimum inhibitory concentration ([13]; Serratia marcescens clinical strain 5) of 128.
